Measurements as given in US20040161426A1, “Use of IL-6 antagonists in combination with steroids to enhance apoptosis” (priority 2003, published 2004).

Columns and labels:
RPMI 8226 cells = test: Dexamethasone-induced apoptosis, Tunel assay with flow cytometry; format: cell-based, human; conditions: for % Apoptosis Mean ± SEM: 48 h; for level of apoptosis (cells undergoing apoptosis): representative experiment
Method: The cell line RPMI 8226, a human multiple myeloma cell line, was purchased from ATCC (Rockville, Md.). Cells were grown and maintained according to ATCC instructions in complete RPMI medium containing 10% FBS, 1% NEAA, 1% L-glutamine and 1% sodium pyruvate.
Chimeric CLB8 (cCLB8) (Centocor, Malvern, Pa.) was used at three different concentrations in the assay. Another a chimeric human-mouse IgG, c171A, also developed at Centocor was used as a negative control antibody.
[…] After the incubation, cells were harvested and the Tunel assay (Tdt-mediated dUTP-FITC nick end labeling) as disclosed in Gavrieli et al., “Identification of Programmed Cell Death in situ Via Specific Labelling of Nuclear DNA Fragmentation”, […] 119:493-501, 1992 was used to measure apoptosis with minor modifications. Briefly, after the 48-hour incubation described above, approximately 10^6 cells were harvested, washed twice, and fixed with 1% paraformaldehyde for 15 minutes. After washing, the cells were permeabilized with 0.1% Triton (Sigma, St. Louis, Mo.) for 5 minutes and washed twice. The labeling reaction was performed in a heating block at 37° C. for 1 hour with 0.3 nM FITC-12-dUTP (Boehringer Mannheim, Indianapolis, Ind.), 2.5 mM CoCI2, 12.5 U Tdt, and 5 microL of 5×Tdt Buffer (Boehringer Mannheim) in a total volume of 50 microL. Cells were analyzed by flow cytometry.
After completing the Tunel assay, cells were washed twice and analyzed on a FACS Calibur flow cytometer (Becton Dickinson Immunocytometry Systems, San Jose, Calif.) equipped with a 15-mW air-cooled 488-nm argon laser. Gating to exclude debris was based upon diminished forward scatter (FSC) and side scatter (SSC). A minimum of 10,000 events was collected per sample and all analyses were performed with CELLQuest software (Becton Dickinson Immunocytometry Systems, San Jose, Calif.).

IL-6 = target: T1, IL-6 (Homo sapiens, UniProt P05231); conditions: multiple myeloma patients after cCLB8 administration; cited from earlier work
T1 construct: host or cells: patients (endogenous IL-6)
T1 sequence (P05231 30-212): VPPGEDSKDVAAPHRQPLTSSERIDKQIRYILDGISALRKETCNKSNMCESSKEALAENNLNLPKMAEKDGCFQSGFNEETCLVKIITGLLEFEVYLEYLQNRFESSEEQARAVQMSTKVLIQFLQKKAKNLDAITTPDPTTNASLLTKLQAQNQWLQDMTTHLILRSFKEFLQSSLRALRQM

IL-6: 22-27 kDa secreted glycoprotein cytokine interleukin 6 [reference compound]
IL-6 concentration inhibiting dexamethasone-induced apoptosis (RPMI 8226 cells; RPMI 8226 cells, dexamethasone 1 microM): higher than 100 ng/mL

cCLB8: chimerized form of the murine anti-IL-6 monoclonal antibody CLB-6/8 (Centocor)
% Apoptosis Mean ± SEM (RPMI 8226 cells; RPMI 8226 cells, DEX + IL-6 + CNTO 328 100 ng): % 45 ± 11
% Apoptosis Mean ± SEM (RPMI 8226 cells; RPMI 8226 cells, DEX + IL-6 + CNTO 328 1 ug): % 54 ± 2.5
neutralization of the inhibitory effect of IL-6 on dexamethasone-induced apoptosis (RPMI 8226 cells; RPMI 8226 cells, P<0.02): neutralized the inhibitory effect of IL-6 on dexamethasone-induced apoptosis in a dose dependent manner
promotion of cellular apoptosis, combination versus single agents (RPMI 8226 cells; combination of dexamethasone and cCLB8): superior to treatment with either agent alone
level of apoptosis (cells undergoing apoptosis) (RPMI 8226 cells; FIG. 1C, dexamethasone in the presence of both IL-6 and cCLB8): 60%
circulating levels of sIL6R and sgp130 (IL-6): remained unchanged
serum IL-6 activity (IL-6): total blockage of serum IL-6 activity

C[C@@H]1C[C@H]2[C@@H]3CCC4=CC(=O)C=C[C@]4(C)[C@@]3(F)[C@@H](O)C[C@]2(C)[C@@]1(O)C(=O)CO [Dexamethasone, reference compound]
% Apoptosis Mean ± SEM (RPMI 8226 cells; RPMI 8226 cells, DEX 10-6 alone): % 46 ± 4
% Apoptosis Mean ± SEM (RPMI 8226 cells; RPMI 8226 cells, DEX + IL-6 100 pg): % 27 ± 9
level of apoptosis (cells undergoing apoptosis) (RPMI 8226 cells; FIG. 1A, dexamethasone 1 microM, 48 hrs): 45%
level of apoptosis (cells undergoing apoptosis) (RPMI 8226 cells; FIG. 1B, dexamethasone in the presence of IL-6): 20%
